Peptide text beside a SMILES is read from it.
Legend:
HDAC6 = biological target: T1, HDAC6 (Homo sapiens, UniProt Q9UBN7); experiment: HDAC6 inhibition, full IC50 measurement (Reaction Biology; fluorogenic p53 peptide RHKK(Ac)AMC); format: biochemical
T1 construct: purchased Reaction Biology Corporation (assay run by the CRO)
T1 sequence (Q9UBN7 1-1215): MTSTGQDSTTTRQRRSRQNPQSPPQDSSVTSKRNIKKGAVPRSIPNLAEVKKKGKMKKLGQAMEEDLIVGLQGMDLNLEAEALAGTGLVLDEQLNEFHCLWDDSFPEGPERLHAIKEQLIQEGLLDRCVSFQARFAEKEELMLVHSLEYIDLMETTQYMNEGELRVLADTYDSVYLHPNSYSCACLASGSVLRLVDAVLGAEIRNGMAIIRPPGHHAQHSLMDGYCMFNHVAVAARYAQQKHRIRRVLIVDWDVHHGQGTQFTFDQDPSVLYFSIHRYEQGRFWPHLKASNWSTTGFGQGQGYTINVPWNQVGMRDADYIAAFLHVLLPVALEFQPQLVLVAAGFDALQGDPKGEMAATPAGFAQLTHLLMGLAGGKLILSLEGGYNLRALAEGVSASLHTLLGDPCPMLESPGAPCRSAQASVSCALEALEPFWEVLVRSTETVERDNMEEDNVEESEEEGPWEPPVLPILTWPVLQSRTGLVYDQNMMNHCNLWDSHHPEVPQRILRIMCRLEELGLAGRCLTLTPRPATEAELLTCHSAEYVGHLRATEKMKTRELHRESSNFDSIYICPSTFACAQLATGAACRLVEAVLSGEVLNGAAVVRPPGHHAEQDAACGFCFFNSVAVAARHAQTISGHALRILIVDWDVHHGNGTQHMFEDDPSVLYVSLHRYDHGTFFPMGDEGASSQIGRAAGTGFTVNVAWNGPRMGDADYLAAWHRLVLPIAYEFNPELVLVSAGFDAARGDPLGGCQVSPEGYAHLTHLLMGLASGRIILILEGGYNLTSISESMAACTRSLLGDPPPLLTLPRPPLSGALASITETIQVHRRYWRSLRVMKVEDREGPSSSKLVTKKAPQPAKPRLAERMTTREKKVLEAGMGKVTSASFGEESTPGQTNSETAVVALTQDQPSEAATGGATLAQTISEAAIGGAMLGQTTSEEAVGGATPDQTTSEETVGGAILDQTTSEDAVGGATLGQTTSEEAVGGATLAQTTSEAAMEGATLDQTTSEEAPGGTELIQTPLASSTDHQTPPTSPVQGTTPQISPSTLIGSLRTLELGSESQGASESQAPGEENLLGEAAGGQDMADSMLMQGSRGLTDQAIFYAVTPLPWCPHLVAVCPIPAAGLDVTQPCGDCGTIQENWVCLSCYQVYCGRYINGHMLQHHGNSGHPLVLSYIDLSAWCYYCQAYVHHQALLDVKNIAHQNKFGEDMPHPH
In short: (§1)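 The reaction was a 1 h, 30 °C incubation of enzyme, acoustically added peptide and 50 μM p53-derived AMC substrate in pH 8.0 Tris buffer with NaCl, KCl, MgCl2, 1 mg/ml BSA and 1% DMSO. Duplicate values were averaged.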

HDAC3 = biological target: T2, HDAC3 (Homo sapiens, UniProt O15379); experiment: HDAC3 inhibition, full IC50 measurement (Reaction Biology; fluorogenic p53 peptide RHKK(Ac)AMC); format: biochemical
T2 construct: purchased Reaction Biology Corporation (assay run by the CRO)
In short: as §1

T2 sequence (O15379 whole entry): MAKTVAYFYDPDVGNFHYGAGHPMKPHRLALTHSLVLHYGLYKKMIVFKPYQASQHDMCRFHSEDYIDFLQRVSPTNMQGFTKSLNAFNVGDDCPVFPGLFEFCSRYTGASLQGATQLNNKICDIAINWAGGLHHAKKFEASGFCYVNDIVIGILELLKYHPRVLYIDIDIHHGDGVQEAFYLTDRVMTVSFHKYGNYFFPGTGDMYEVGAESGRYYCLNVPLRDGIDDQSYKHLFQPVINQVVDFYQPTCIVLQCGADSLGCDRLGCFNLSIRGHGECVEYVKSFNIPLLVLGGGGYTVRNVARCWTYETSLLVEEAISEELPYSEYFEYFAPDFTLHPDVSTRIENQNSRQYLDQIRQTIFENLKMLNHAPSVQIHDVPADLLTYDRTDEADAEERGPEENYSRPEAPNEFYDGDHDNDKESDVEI
T2 sequence (Q9Y618 395-489 partner limits assumed): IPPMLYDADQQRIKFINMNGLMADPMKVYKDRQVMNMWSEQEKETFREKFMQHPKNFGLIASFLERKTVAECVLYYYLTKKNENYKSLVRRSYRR

C[C@H](O)[C@H]1NC(=O)[C@H](Cc2c[nH]c3ccccc23)NC(=O)[C@H](CCCCCS)NC(=O)[C@H](CCCCN)NC(=O)[C@@H](CC(=O)O)NC(=O)[C@@H](CCCCN)NC(=O)[C@@H](CO)NC(=O)[C@H](CC(N)=O)NC(=O)[C@H](CC(=O)O)NC1=O [des2.1.0, SHA-Trp-dThr-Asp-Asn-dSer-dLys-dAsp-Lys] (HELM PEPTIDE1{D.N.[dS].[dK].[dD].K.[O=C([C@H](CCCCCS)N[*:1])[*:2]].W.[dT]}$PEPTIDE1,PEPTIDE1,1:R1-9:R2$$$V2.0)
HDAC6 activity raw data (signal) (HDAC6; Conc. 1.00E-05 M, t1): 11243
HDAC6 activity raw data (signal) (HDAC6; Conc. 1.00E-05 M, t2): 1739
HDAC6 activity raw data (signal) (HDAC6; Conc. 1.11E-06 M, t1): 28172
HDAC6 activity raw data (signal) (HDAC6; Conc. 1.11E-06 M, t2): 21097
HDAC6 activity raw data (signal) (HDAC6; Conc. 1.23E-07 M, t1): 158713
HDAC6 activity raw data (signal) (HDAC6; Conc. 1.23E-07 M, t2): 131097
HDAC6 activity raw data (signal) (HDAC6; Conc. 1.37E-08 M, t1): 435775
HDAC6 activity raw data (signal) (HDAC6; Conc. 1.37E-08 M, t2): 375237
HDAC6 activity raw data (signal) (HDAC6; Conc. 1.52E-09 M, t1): 580209
HDAC6 activity raw data (signal) (HDAC6; Conc. 1.52E-09 M, t2): 526073
HDAC6 activity raw data (signal) (HDAC6; Conc. 3.33E-06 M, t1): 12962
HDAC6 activity raw data (signal) (HDAC6; Conc. 3.33E-06 M, t2): 9723
HDAC6 activity raw data (signal) (HDAC6; Conc. 3.70E-07 M, t1): 70613
HDAC6 activity raw data (signal) (HDAC6; Conc. 3.70E-07 M, t2): 63583
HDAC6 activity raw data (signal) (HDAC6; Conc. 4.12E-08 M, t1): 283586
HDAC6 activity raw data (signal) (HDAC6; Conc. 4.12E-08 M, t2): 230477
HDAC6 activity raw data (signal) (HDAC6; Conc. 4.57E-09 M, t1): 537641
HDAC6 activity raw data (signal) (HDAC6; Conc. 4.57E-09 M, t2): 486475
HDAC6 activity raw data (signal) (HDAC6; Conc. 5.08E-10 M, t1): 609077
HDAC6 activity raw data (signal) (HDAC6; Conc. 5.08E-10 M, t2): 536924
HDAC3 activity raw data (signal) (HDAC3; Conc. 1.00E-05 M, t1): 14719
HDAC3 activity raw data (signal) (HDAC3; Conc. 1.00E-05 M, t2): 13801
HDAC3 activity raw data (signal) (HDAC3; Conc. 1.11E-06 M, t1): 92063
HDAC3 activity raw data (signal) (HDAC3; Conc. 1.11E-06 M, t2): 96957
HDAC3 activity raw data (signal) (HDAC3; Conc. 1.23E-07 M, t1): 462933
HDAC3 activity raw data (signal) (HDAC3; Conc. 1.23E-07 M, t2): 478168
HDAC3 activity raw data (signal) (HDAC3; Conc. 1.37E-08 M, t1): 1054714
HDAC3 activity raw data (signal) (HDAC3; Conc. 1.37E-08 M, t2): 1114131
HDAC3 activity raw data (signal) (HDAC3; Conc. 1.52E-09 M, t1): 1368847
HDAC3 activity raw data (signal) (HDAC3; Conc. 1.52E-09 M, t2): 1246343
HDAC3 activity raw data (signal) (HDAC3; Conc. 3.33E-06 M, t1): 35860
HDAC3 activity raw data (signal) (HDAC3; Conc. 3.33E-06 M, t2): 35981
HDAC3 activity raw data (signal) (HDAC3; Conc. 3.70E-07 M, t1): 254333
HDAC3 activity raw data (signal) (HDAC3; Conc. 3.70E-07 M, t2): 260454
HDAC3 activity raw data (signal) (HDAC3; Conc. 4.12E-08 M, t1): 754531
HDAC3 activity raw data (signal) (HDAC3; Conc. 4.12E-08 M, t2): 801621
HDAC3 activity raw data (signal) (HDAC3; Conc. 4.57E-09 M, t1): 1235523
HDAC3 activity raw data (signal) (HDAC3; Conc. 4.57E-09 M, t2): 1319114
HDAC3 activity raw data (signal) (HDAC3; Conc. 5.08E-10 M, t1): 1390666
HDAC3 activity raw data (signal) (HDAC3; Conc. 5.08E-10 M, t2): 1409656
